Laboratory results reported in patent US20070196406A1, “1,3-Dimethylbutyl carboxanilides for controlling undesirable micro-organisms” (priority 2003, published 2007).

System: Sphaerotheca fuliginea
Experiment: Sphaerotheca test (cucumber)/protective
Type: in vivo
Conditions: cucumber plants, protective spray, 750 g/ha, evaluation 7 days after inoculation
Procedure: Sphaerotheca Test (Cucumber)/Protective
Solvent: 49 parts by weight of N,N-dimethylformamide
Emulsifier: 1 part by weight of alkylaryl polyglycol ether
To produce a suitable preparation of active compound, 1 part by weight of active compound is mixed with the stated amounts of solvent and emulsifier, and the concentrate is diluted with water to the desired concentration.
To test for protective activity, young cucumber plants are sprayed with the preparation of active compound at the stated application rate. One day after the treatment, the plants are inoculated with a spore suspension of Sphaerotheca fuliginea. The plants are then placed in a greenhouse at 70% relative atmospheric humidity and a temperature of 23° C.
Evaluation is carried out 7 days after the inoculation. 0% means an efficacy which corresponds to that of the control, whereas an efficacy of 100% means that no infection is observed.

SMILES | Efficacy in % [%]
Cc1sccc1C(=O)Nc1ccc(F)cc1C(C)CC(C)C (stereo not drawn) [drawing 133] | 100
CC(C)CC(C)c1cc(F)ccc1NC(=O)c1cn(C)nc1C(F)(F)F (stereo not drawn) [drawing 132] | 100
CC(C)CC(C)c1ccccc1NC(=O)c1cn(C)nc1Cl (stereo not drawn) [drawing 131] | 100
